This passage reports IC50 results from patent US20260070945A1, “MACROCYCLIC IMMUNOMODULATORS” (Bristol-Myers Squibb Company, priority 2022, published 2026).

By IC50 is commonly meant the concentration that gives 50% inhibition.

Where a SMILES comes first, the peptide text is derived from it. Bridges are numbered along the chain shown (N, C = ends). [ ]: non-standard residue; d: D form. The star is where a group is joined. ξ: configuration not given here. Phe(4-CONH2) = NC(=O)c1ccc(C[C@H](N)C(=O)O)cc1; Phe(4-COOH) = N[C@@H](Cc1ccc(C(=O)O)cc1)C(=O)O; Bip = N[C@@H](Cc1ccc(-c2ccccc2)cc1)C(=O)O; Phe(3-Me) = Cc1cccc(C[C@H](N)C(=O)O)c1; Val(3-OH) = CC(C)(O)[C@H](N)C(=O)O; 4Pal = N[C@@H](Cc1ccncc1)C(=O)O; Cha = N[C@@H](CC1CCCCC1)C(=O)O; Thr(3ξ) = CC(O)[C@H](N)C(=O)O; Carboxymethyl = O=C(O)C*; NMeA = CN[C@@H](C)C(=O)O; Aun = NCCCCCCCCCCC(=O)O; Dab = NCC[C@H](N)C(=O)O; AEEA = NCCOCCOCC(=O)O

The target of one assay is T1, PD-1/PD-L1 interaction (PE-labeled human PD-L1-Ig binding to Jurkat cell line over-expressing human PD-1) (Homo sapiens, UniProt Q15116).
T1 construct: expressed in transfected cells; host or cells: Jurkat
T1 sequence (Q15116 25-288): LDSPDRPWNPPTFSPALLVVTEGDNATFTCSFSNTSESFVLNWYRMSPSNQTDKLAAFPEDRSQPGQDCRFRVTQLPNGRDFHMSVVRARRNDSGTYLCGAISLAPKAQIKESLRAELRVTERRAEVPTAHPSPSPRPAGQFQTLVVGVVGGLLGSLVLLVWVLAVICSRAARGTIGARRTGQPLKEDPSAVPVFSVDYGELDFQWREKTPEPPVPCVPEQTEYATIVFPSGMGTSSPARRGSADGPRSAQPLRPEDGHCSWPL
Nature of the assay: Jurkat-PD-1 Cell Binding High-Content Screening Assay (CBA). Conditions: Jurkat-hPD-1 cells, PE-labeled PD-L1-Ig 20 nM final; read-out: Jurkat HPD1 PDL1 IC50. The procedure, abridged: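 Binding of 20 nM (final) PE-tagged PD-L1-Ig to compound-pretreated Jurkat-hPD-1 cells was measured by high-content imaging after 1 h. Pretreatment ran 2 h at 37 °C in DMEM with 10% fetal calf serum.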
In the case of `Cc1cccc(C[C@@H]2NC(=O)[C@H](CC(=O)O)NC(=O)[C@H](Cc3ccc(OCC(=O)O)cc3)NC(=O)[C@H](C(C)O)NC(=O)CSC[C@@H](C(=O)N[C@@H](CCN)C(=O)NCCOCCOCC(=O)NCCCCCCCCCCC(=O)O)NC(=O)[C@H](Cc3ccc(OCC(=O)O)cc3)NC(=O)[C@H](C(C)C)NC(=O)[C@H](CC3CCCCC3)NC(=O)[C@H](CCN)NC(=O)[C@@H](CC(C)C)NC(=O)[C@H](C)N(C)C(=O)[C@H](Cc3ccc(OCC(=O)O)cc3)NC(=O)[C@H](Cc3ccc(-c4ccccc4)cc3)NC(=O)[C@H](Cc3ccc(C(=O)O)cc3)NC2=O)c1` (stereo partly drawn) [Example 2478] ({CH2CO}-[Thr(3ξ)]Y(Carboxymethyl)D[Phe(3-Me)][Phe(4-COOH)][Bip]Y(Carboxymethyl)[NMeA][dL][Dab][Cha]VY(Carboxymethyl)C[Dab][AEEA][Aun]-OH; thioether N-14), the IC50 stood at 25.2 nM.

Turning to `Cc1cccc(C[C@@H]2NC(=O)[C@H](CC(=O)O)NC(=O)[C@H](Cc3ccc(OCC(=O)O)cc3)NC(=O)[C@H](C(C)O)NC(=O)CSC[C@@H](C(=O)N[C@@H](CCN)C(=O)NCCOCCOCC(=O)NCCCCCCCCCCC(=O)O)NC(=O)[C@H](CC(=O)O)NC(=O)[C@H](C(C)C)NC(=O)[C@H](CC3CCCCC3)NC(=O)[C@H](CCN)NC(=O)[C@@H](CC(C)C)NC(=O)[C@H](C)N(C)C(=O)[C@H](Cc3ccc(OCC(=O)O)cc3)NC(=O)[C@H](Cc3ccc(-c4ccccc4)cc3)NC(=O)[C@H](Cc3ccc(C(=O)O)cc3)NC2=O)c1` (stereo partly drawn) [Example 2479] ({CH2CO}-[Thr(3ξ)]Y(Carboxymethyl)D[Phe(3-Me)][Phe(4-COOH)][Bip]Y(Carboxymethyl)[NMeA][dL][Dab][Cha]VDC[Dab][AEEA][Aun]-OH; thioether N-14), the IC50 worked out at 19.6 nM.

Consider `Cc1cccc(C[C@@H]2NC(=O)[C@H](CC(=O)O)NC(=O)[C@H](Cc3ccc(C(N)=O)cc3)NC(=O)[C@H](C(C)O)NC(=O)CSC[C@@H](C(=O)N[C@@H](CCN)C(=O)NCCOCCOCC(=O)NCCCCCCCCCCC(=O)O)NC(=O)[C@H](CCC(=O)O)NC(=O)[C@H](C(C)C)NC(=O)[C@H](CC3CCCCC3)NC(=O)[C@H](CCN)NC(=O)[C@@H](CC(C)C)NC(=O)[C@H](C)N(C)C(=O)[C@H](Cc3ccc(OCC(=O)O)cc3)NC(=O)[C@H](Cc3ccc(-c4ccccc4)cc3)NC(=O)[C@H](Cc3ccc(C(=O)O)cc3)NC2=O)c1` (stereo partly drawn) [Example 2480] ({CH2CO}-[Thr(3ξ)][Phe(4-CONH2)]D[Phe(3-Me)][Phe(4-COOH)][Bip]Y(Carboxymethyl)[NMeA][dL][Dab][Cha]VEC[Dab][AEEA][Aun]-OH; thioether N-14), for which the IC50 is 17.4 nM.

As to `Cc1cccc(C[C@@H]2NC(=O)[C@H](CC(=O)O)NC(=O)[C@H](Cc3ccc(OCC(=O)O)cc3)NC(=O)[C@H](C(C)O)NC(=O)CSC[C@@H](C(=O)N[C@@H](CCN)C(=O)NCCOCCOCC(=O)NCCCCCCCCCCC(=O)O)NC(=O)[C@H](CCC(=O)O)NC(=O)[C@H](C(C)C)NC(=O)[C@H](CC3CCCCC3)NC(=O)[C@H](CCN)NC(=O)[C@@H](CC(C)C)NC(=O)[C@H](C)N(C)C(=O)[C@H](Cc3ccc(OCC(=O)O)cc3)NC(=O)[C@H](Cc3ccc(-c4ccccc4)cc3)NC(=O)[C@H](Cc3ccc(C(=O)O)cc3)NC2=O)c1` (stereo partly drawn) [Example 2481] ({CH2CO}-[Thr(3ξ)]Y(Carboxymethyl)D[Phe(3-Me)][Phe(4-COOH)][Bip]Y(Carboxymethyl)[NMeA][dL][Dab][Cha]VEC[Dab][AEEA][Aun]-OH; thioether N-14), the IC50 is 14.6 nM.

Regarding `Cc1cccc(C[C@@H]2NC(=O)[C@H](CC(=O)O)NC(=O)[C@H](Cc3ccc(OCC(=O)O)cc3)NC(=O)[C@H](C(C)O)NC(=O)CSC[C@@H](C(=O)N[C@@H](CCN)C(=O)NCCOCCOCC(=O)NCCOCCOCC(=O)NCCCCCCCCCCC(=O)O)NC(=O)[C@H](CCC(=O)O)NC(=O)[C@H](C(C)C)NC(=O)[C@H](CC3CCCCC3)NC(=O)[C@H](CCN)NC(=O)[C@@H](CC(C)C)NC(=O)[C@H](C)N(C)C(=O)[C@H](Cc3ccc(OCC(=O)O)cc3)NC(=O)[C@H](Cc3ccc(-c4ccccc4)cc3)NC(=O)[C@H](Cc3ccc(C(=O)O)cc3)NC2=O)c1` (stereo partly drawn) [Example 2482] ({CH2CO}-[Thr(3ξ)]Y(Carboxymethyl)D[Phe(3-Me)][Phe(4-COOH)][Bip]Y(Carboxymethyl)[NMeA][dL][Dab][Cha]VEC[Dab][AEEA][AEEA][Aun]-OH; thioether N-14), the IC50 came to 20.7 nM.

Consider `Cc1cccc(C[C@@H]2NC(=O)[C@H](CC(=O)O)NC(=O)[C@H](Cc3ccc(OCC(=O)O)cc3)NC(=O)[C@H](CCN)NC(=O)CSC[C@@H](C(=O)N[C@@H](CCN)C(=O)NCCCCCCCCCCC(=O)O)NC(=O)[C@H](Cc3c[nH]cn3)NC(=O)[C@H](C(C)(C)O)NC(=O)[C@H](CC3CCCCC3)NC(=O)[C@H](CCN)NC(=O)[C@@H](CC(C)C)NC(=O)[C@H](C)N(C)C(=O)[C@H](Cc3ccc(OCC(=O)O)cc3)NC(=O)[C@H](Cc3ccc(-c4ccccc4)cc3)NC(=O)[C@H](Cc3ccc(OCC(=O)O)cc3)NC2=O)c1` [Example 2483] ({CH2CO}-[Dab]Y(Carboxymethyl)D[Phe(3-Me)]Y(Carboxymethyl)[Bip]Y(Carboxymethyl)[NMeA][dL][Dab][Cha][Val(3-OH)]HC[Dab][Aun]-OH; thioether N-14), for which the IC50 is 12.6 nM.

The assay is the same for the next values; noted with them: PE-labeled PD-L1-Ig 20 nM final, Jurkat-hPD-1 cells; read-out: Jurkat HPD1 PDL1 IC50.
As for `Cc1cccc(C[C@@H]2NC(=O)[C@H](CC(=O)O)NC(=O)[C@H](Cc3ccc(OCC(=O)O)cc3)NC(=O)[C@H](Cc3ccncc3)NC(=O)CSC[C@@H](C(=O)N[C@@H](CCN)C(=O)NCCOCCOCC(=O)NCCCCCCCCCCC(=O)O)NC(=O)[C@H](CCC(=O)O)NC(=O)[C@H](C(C)(C)O)NC(=O)[C@H](CC3CCCCC3)NC(=O)[C@H](CCN)NC(=O)[C@@H](CC(C)C)NC(=O)[C@H](C)N(C)C(=O)[C@H](Cc3ccc(C(=O)O)cc3)NC(=O)[C@H](Cc3ccc(-c4ccccc4)cc3)NC(=O)[C@H](Cc3ccc(C(=O)O)cc3)NC2=O)c1` [Example 2485] ({CH2CO}-[4Pal]Y(Carboxymethyl)D[Phe(3-Me)][Phe(4-COOH)][Bip][Phe(4-COOH)][NMeA][dL][Dab][Cha][Val(3-OH)]EC[Dab][AEEA][Aun]-OH; thioether N-14), the IC50 was determined as 11.5 nM.

Regarding `Cc1cccc(C[C@@H]2NC(=O)[C@H](CC(=O)O)NC(=O)[C@H](Cc3ccc(OCC(=O)O)cc3)NC(=O)[C@H](Cc3ccncc3)NC(=O)CSC[C@@H](C(=O)NCCOCCOCC(=O)NCCOCCOCC(=O)NCCCCCCCCCCC(=O)O)NC(=O)[C@H](CCC(=O)O)NC(=O)[C@H](C(C)(C)O)NC(=O)[C@H](CC3CCCCC3)NC(=O)[C@H](CCN)NC(=O)[C@@H](CC(C)C)NC(=O)[C@H](C)N(C)C(=O)[C@H](Cc3ccc(C(=O)O)cc3)NC(=O)[C@H](Cc3ccc(-c4ccccc4)cc3)NC(=O)[C@H](Cc3ccc(C(=O)O)cc3)NC2=O)c1` [Example 2486] ({CH2CO}-[4Pal]Y(Carboxymethyl)D[Phe(3-Me)][Phe(4-COOH)][Bip][Phe(4-COOH)][NMeA][dL][Dab][Cha][Val(3-OH)]EC[AEEA][AEEA][Aun]-OH; thioether N-14), the IC50 turned out to be 305 nM.
